Assay results taken from US9150592B2, “Heterocyclic nuclear hormone receptor modulators” (AbbVie Inc., priority 2012, dated 2015).

Tests used:
[1] = molecular target: T1, Glucocorticoid Receptor (GR) (Homo sapiens, UniProt P04150); test: GR Fluorescence Polarization Assay (PolarScreen Glucocorticoid Receptor Competitor Assay, Red); conditions: IC50 class ranges, read-out: GR binding
T1 construct: purchased Invitrogen P2893
T1 sequence (P04150 1-777): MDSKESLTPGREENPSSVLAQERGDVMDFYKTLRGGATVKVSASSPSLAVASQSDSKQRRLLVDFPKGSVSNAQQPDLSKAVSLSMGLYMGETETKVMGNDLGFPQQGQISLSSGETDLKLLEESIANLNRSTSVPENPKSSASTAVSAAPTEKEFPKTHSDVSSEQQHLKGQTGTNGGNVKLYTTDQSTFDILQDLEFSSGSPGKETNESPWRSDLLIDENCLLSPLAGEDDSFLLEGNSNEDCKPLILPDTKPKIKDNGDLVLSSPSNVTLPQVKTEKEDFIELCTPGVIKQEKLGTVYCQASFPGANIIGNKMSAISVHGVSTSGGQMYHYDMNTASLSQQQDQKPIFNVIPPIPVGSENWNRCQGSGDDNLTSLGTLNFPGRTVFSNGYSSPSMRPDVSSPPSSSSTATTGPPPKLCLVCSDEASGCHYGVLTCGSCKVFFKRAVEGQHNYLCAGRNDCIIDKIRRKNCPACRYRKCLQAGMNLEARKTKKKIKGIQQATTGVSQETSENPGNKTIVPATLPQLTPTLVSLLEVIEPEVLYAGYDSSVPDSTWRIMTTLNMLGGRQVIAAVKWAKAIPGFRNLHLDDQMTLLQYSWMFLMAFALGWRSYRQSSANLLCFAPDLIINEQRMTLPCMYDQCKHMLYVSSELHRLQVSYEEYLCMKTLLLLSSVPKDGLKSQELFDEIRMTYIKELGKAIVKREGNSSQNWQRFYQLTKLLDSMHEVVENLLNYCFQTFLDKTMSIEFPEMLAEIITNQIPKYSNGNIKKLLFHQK
Procedure: GR Fluorescence Polarization Assay
Fluorescence polarization assays were carried out using the PolarScreen™ Glucocorticoid Receptor Competitor Assay, Red from Invitrogen (P2893). The assay buffer was prepared according to the manufacturer's protocol and used to dilute the fluorescent glucocorticoid and GR. Compounds were prepared and serial diluted 1:4 in DMSO. Compound, fluorescent glucocorticoid and GR were added in a final volume of 20 μL and incubated overnight at 4° C. Fluorescent polarization was measured on the PerkinElmer Envision®.

[2] = test system: IL-6 in A549 cells stimulated with IL-1β; test: A549 Cell Assay to Measure Inflammation Markers (inhibition of IL-1β-induced IL-6); format: cell-based; conditions: intrinsic activity, Emax class ranges; for Emax: Homo sapiens, A549, A549 Cell Assay to Measure Inflammation Markers
Procedure: A549 Cell Assay to Measure Inflammation Markers
Further dilution (1:250) of compound was made into assay medium and 50 μL/well diluted drug or DMSO/media control was applied to cells. After a 1 h pre-incubation in a temperature, CO2, and humidity controlled incubator, set to 37° C., 50 μL/well of 4 ng/mL IL-1β diluted in assay media, was applied to cultures. Assay plates, with a final volume of 200 μL/well and final concentrations of 0.1% DMSO and 1 ng/mL IL-1β were returned to incubator for a […] incubation period. Next, plates were spun at 183 g (1000 rpm in Beckman/Coulter Allegra 6KR centrifuge) for 10 min. Cell-free supernatant (150 μL/well) was collected and IL-6 was measured by MSD kit, following protocol of manufacturer, and using MSD SECTOR Imager 6000 instrument. […] Results were represented as IC50 and Emax values.

Row | Structure (SMILES) | IC50 [1] | A549 Emax ([2]; A549 Cell Assay to Measure Inflammation Markers) | Emax [2]
1 | Cc1cc(C(=O)Nc2cccnc2C)ccc1[C@H]1SCCNc2c1c(-c1ccccn1)nn2C | 100 to 1000 nM | B (a compound with Emax>60%) | –
2 | Cc1cc(Br)ccc1C1SC(C)(C)CNc2c1c(C)nn2C (centres unmarked) [D.58, 4-(4-bromo-2-methyl-phenyl)-1,3,6,6-tetramethyl-7,8-dihydro-4H-pyrazolo[3,4-e][1,4]thiazepine] | < 100 nM | – | > 50%
3 | Cn1nc(-c2ccccn2)c2c1NCCSC2Cc1ccccc1 (centres unmarked) [D.36] | > 10000 nM | – | < 50%
4 | Cc1cc(Cl)ccc1C1SCCNc2c1c(-c1ccn[nH]1)nn2C (centres unmarked) | 100 to 1000 nM | – | < 50%
5 | Cc1nn(C)c2c1C(c1ccc(Br)cc1Cl)SC(C)(C)CN2 (centres unmarked) [D.60] | < 100 nM | – | > 50%
6 | Cc1nn(C)c2c1C(c1ccc(Cl)cc1Cl)SC(C)(C)CN2CC(O)C(F)(F)F (centres unmarked) | > 10000 nM | – | < 50%
7 | Cn1nc(-c2ccccn2)c2c1NCCSC2c1ccccc1Cl (centres unmarked) | < 100 nM | – | < 50%
8 | Cn1nc(-c2ccccn2)c2c1NCCSC2c1c(Cl)cccc1Cl (centres unmarked) [D.2] | 1000 to 10000 nM | – | < 50%
9 | Cc1cc(C#N)ccc1C1SC(C)(C)CNc2c1c(C)nn2C (centres unmarked) [G.6] | 100 to 1000 nM | – | < 50%
10 | CCn1nc(-c2ccccn2)c2c1NCCCC2c1ccc(Br)cc1C (centres unmarked) [BB.1, 4-(4-bromo-2-methylphenyl)-1-ethyl-3-(pyridin-2-yl)-1,4,5,6,7,8-hexahydropyrazolo[3,4-b]azepine] | < 100 nM | – | > 70%
11 | Cc1cc(F)ccc1C1SCCNc2c1c(-c1ccccn1)nn2C (centres unmarked) [D.11] | < 100 nM | – | > 50%
12 | CC1=Nc2c(c(-c3ccccn3)nn2C)C(c2ccc(Cl)cc2C)SC1 (centres unmarked) | 100 to 1000 nM | – | < 50%
13 | COC(=O)c1ccc(C2SCCNc3c2c(-c2ccccn2)nn3C)c(Cl)c1 (centres unmarked) [E.1, methyl 3-chloro-4-[1-methyl-3-(2-pyridyl)-4,6,7,8-tetrahydropyrazolo[3,4-e][1,4]thiazepin-4-yl]benzoate] | < 100 nM | – | < 50%
14 | Cc1nn(C)c2c1C(c1ccc(Cl)cc1Cl)SCCN2 (centres unmarked) [D.80] | 100 to 1000 nM | – | < 50%
15 | Cc1cc(Cl)ccc1[C@H]1SC[C@H](C)Nc2c1c(-c1ccccn1)nn2C | 1000 to 10000 nM | – | < 50%
16 | Cc1cc(C(=O)Nc2cccnc2C)ccc1C1SC(C)(C)CNc2c1c(C)nn2C (centres unmarked) [H.5] | 1000 to 10000 nM | – | < 50%
17 | COc1cc(Cl)ccc1C1SCCNc2c1c(-c1ccccn1)nn2C (centres unmarked) [D.5] | < 100 nM | – | < 50%
18 | CCn1nc(-c2ccccn2)c2c1N[C@@H](C)CS[C@H]2c1ccc(CCCO)cc1C (single isomer, unassigned) [M.36, 3-(4-(1-ethyl-7-methyl-3-(pyridin-2-yl)-4,6,7,8-tetrahydro-1H-pyrazolo[3,4-e][1,4]thiazepin-4-yl)-3-methylphenyl)propan-1-ol] | < 100 nM | – | > 60%
19 | Cc1ccc(C(=O)Nc2cccnc2C)cc1C1SCCNc2c1c(-c1ccccn1)nn2C (centres unmarked) [F.5] | > 10000 nM | – | < 50%
20 | CCn1nc(-c2ccccn2)c2c1NCCSC2c1ccc(C(=O)Nc2cccnc2C)cc1C (centres unmarked) [H.4] | < 100 nM | – | > 70%
21 | CCn1nc(-c2ccccn2)c2c1N[C@@H](C)CS[C@H]2c1ccc(C(N)=O)cc1C (single isomer, unassigned) [M.48, 4-(1-ethyl-7-methyl-3-(pyridin-2-yl)-4,6,7,8-tetrahydro-1H-pyrazolo[3,4-e][1,4]thiazepin-4-yl)-3-methylbenzamide] | < 100 nM | – | > 50%
22 | Cc1cc(Br)ccc1[C@H]1SC[C@H](C(F)(F)F)Nc2c1c(-c1ccccn1)nn2C (racemic) | 100 to 1000 nM | – | < 50%
23 | CCn1nc(-c2ccccn2)c2c1NCCCC2c1ccc(C(=O)Nc2cccnc2C)cc1C (centres unmarked) [F.7] | < 100 nM | – | > 70%

Row | Structure (SMILES) | IC50 [1] | A549 Emax ([2]; A549 Cell Assay to Measure Inflammation Markers) | Emax [2]
24 | Cc1cc(-c2nn(C)c3c2C(c2ccc(Br)cc2C)SCCN3)on1 (centres unmarked) [D.29] | < 100 nM | – | < 50%
25 | Cc1ccc(Cl)cc1C1SC(C)(C)CNc2c1c(C1CC1)nn2C (centres unmarked) [D.46] | < 100 nM | – | < 50%
26 | Cc1ccc(C2SCCNc3c2c(-c2ccccn2)nn3C)c(Cl)c1 (centres unmarked) | < 100 nM | – | < 50%
27 | CCn1nc(-c2ccccn2)c2c1NC(=O)CCC2c1ccc(Br)cc1C (centres unmarked) [AA.1, 4-(4-Bromo-2-methylphenyl)-1-ethyl-3-(pyridin-2-yl)-4,5,6,8-tetrahydropyrazolo[3,4-b]azepin-7(1H)-one] | < 100 nM | – | < 50%
28 | COc1cc(C2SCCNc3c2c(-c2ccccn2)nn3C)c(C)cc1Cl (centres unmarked) [D.35] | 1000 to 10000 nM | – | < 50%
29 | Cc1ccc(C)c(C2SC(C)(C)CNc3c2c(C2CC2)nn3C)c1 (centres unmarked) [D.49] | < 100 nM | – | < 50%
30 | CN(C)c1ccc(C2SCCNc3c2c(-c2ccccn2)nn3C)c(Cl)c1 (centres unmarked) [D.6] | 100 to 1000 nM | – | < 50%
31 | Cc1cc(C#CCO)ccc1[C@@H]1SC[C@H](C)Nc2c1c(-c1ccccn1)nn2C (single isomer, unassigned) [M.71, 3-(4-(1,7-dimethyl-3-(pyridin-2-yl)-4,6,7,8-tetrahydro-1H-pyrazolo[3,4-e][1,4]thiazepin-4-yl)-3-methylphenyl)prop-2-yn-1-ol] | < 100 nM | – | < 50%
32 | Cc1cc(Br)ccc1C1SCC(C#N)Nc2c1c(-c1ccccn1)nn2C (racemic) | < 100 nM | – | > 60%
33 | Cc1cc(Cl)ccc1[C@H]1S[C@@H](CCO)CNc2c1c(-c1ccccn1)nn2C (single isomer, unassigned) [M.10, 2-(4-(4-chloro-2-methylphenyl)-1-methyl-3-(pyridin-2-yl)-4,6,7,8-tetrahydro-1H-pyrazolo[3,4-e][1,4]thiazepin-6-yl)ethanol] | 1000 to 10000 nM | – | < 50%
34 | Cc1cc(Cl)ccc1C1SCCNc2c1c([C@@H]1CCCN1)nn2C (mixture of isomers) | 1000 to 10000 nM | – | < 50%
35 | C=Cc1cc(Cl)ccc1C1SCCNc2c1c(-c1ccccn1)nn2C (centres unmarked) | < 100 nM | – | > 60%
36 | Cn1nc(-c2ccccn2)c2c1NCCSC2c1ccncc1Cl (centres unmarked) [D.7] | < 100 nM | – | < 50%
37 | Cc1cc(Cl)ccc1[C@H]1S[C@H](CCO)CNc2c1c(-c1ccccn1)nn2C (single isomer, unassigned) [M.11, 2-(4-(4-chloro-2-methylphenyl)-1-methyl-3-(pyridin-2-yl)-4,6,7,8-tetrahydro-1H-pyrazolo[3,4-e][1,4]thiazepin-6-yl)ethanol] | 1000 to 10000 nM | – | < 50%
38 | Cc1ccc(C#N)cc1C1SC(C)(C)CNc2c1c(C1CC1)nn2C (centres unmarked) [G.5] | 100 to 1000 nM | – | < 50%
39 | Cc1cc(Cl)ccc1C1SCCNc2c1c(C1CCCO1)nn2C (centres unmarked) [D.72] | 100 to 1000 nM | – | < 50%
40 | Cn1nc(-c2ccccn2)c2c1NCCSC2c1ccc(Cl)cc1 (centres unmarked) [D.23] | 100 to 1000 nM | – | < 50%
41 | CCn1nc(-c2ccccn2)c2c1NCCSC2c1ccc(C(=O)Nc2cc(C)no2)cc1C (centres unmarked) [R.1, 4-(1-ethyl-3-(pyridin-2-yl)-4,6,7,8-tetrahydro-1H-pyrazolo[3,4-e][1,4]thiazepin-4-yl)-3-methyl-N-(3-methylisoxazol-5-yl)benzamide] | < 100 nM | – | < 50%
42 | Cc1cc(OCc2cccnc2C)ccc1C1SCCNc2c1c(-c1ccccn1)nn2C (centres unmarked) | < 100 nM | – | < 50%
43 | Cc1nn(C)c2c1C(c1ccc(Cl)cc1Cl)SC(C)(C)CN2C=O (centres unmarked) | 1000 to 10000 nM | – | < 50%
44 | CC(C)c1nn(C)c2c1C(c1ccc(Cl)cc1Cl)SC(C)(C)CN2 (centres unmarked) [D.64] | 100 to 1000 nM | – | < 50%
45 | COc1ccnc(-c2nn(C)c3c2C(c2ccc(Cl)cc2C)SCCN3)c1 (centres unmarked) [D.22] | < 100 nM | – | < 50%
46 | Cn1nc(-c2ccccn2)c2c1NCCSC2c1ccc(Cl)cc1Br (centres unmarked) [D.37, 4-(2-bromo-4-chloro-phenyl)-1-methyl-3-(2-pyridyl)-4,6,7,8-tetrahydropyrazolo[3,4-e][1,4]thiazepine] | < 100 nM | – | > 50%
